Experimental data published in patent US6656694B2, “Method for identifying a ligand for a biological substrate” (Theravance, Inc., priority 2001, dated 2003).
pKd: −log10 of the molar value.

Assays:
[1] = biological target: T1, human cloned muscarinic receptor (M2), second binding site (Homo sapiens, UniProt P08172); test: Screening of candidate compounds: effect on 3H-NMS binding in the presence of multibinding Compound A; conditions: candidate 500 nM; Compound A 200 nM; 3H-NMS 10 nM; PBS pH 7.4; CHO membranes; 1 hour at 37° C.; B and C relative to each other
T1 sequence (P08172 1-466): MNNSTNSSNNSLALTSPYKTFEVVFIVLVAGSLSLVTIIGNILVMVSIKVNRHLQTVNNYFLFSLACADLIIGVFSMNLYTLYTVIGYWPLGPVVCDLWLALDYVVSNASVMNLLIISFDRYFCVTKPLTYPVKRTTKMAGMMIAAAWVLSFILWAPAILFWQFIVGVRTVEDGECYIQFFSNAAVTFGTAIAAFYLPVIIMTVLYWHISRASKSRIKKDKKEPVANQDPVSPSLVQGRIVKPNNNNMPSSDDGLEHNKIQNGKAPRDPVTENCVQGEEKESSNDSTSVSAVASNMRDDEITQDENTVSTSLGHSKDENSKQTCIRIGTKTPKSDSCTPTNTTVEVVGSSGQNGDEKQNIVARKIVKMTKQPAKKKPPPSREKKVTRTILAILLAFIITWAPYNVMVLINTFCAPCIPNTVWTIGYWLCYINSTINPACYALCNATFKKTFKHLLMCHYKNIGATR
Experimental: Into each well in a 96 well place, the following are added:
a) Compound A, such that the final concentration in the well is 200 nM (10 times the Kd of Compound A) in phosphate buffered saline at pH 7.4;
b) tritiated N-methyl scopalamine (^3H-NMS), such that the final concentration in each well is 10 nM (0.5 times the Kd of ^3H-NMS);
c) a candidate compound at a final concentration of 500 nM, the candidate compound being selected from amines including Compound B and Compound C (which are commercially available); [drawing 5]
(§1) d) membrane containing human cloned muscarinic receptor (prepared by expressing M2 coding plasmid in CHO cells using well-known procedures and reagents).
(§2) The 96 well plate is then incubated for 1 hour at 37° C. After incubation, the membranes are filtered to separate bound from unbound ^3H-NMS. Scintillant is then added, and the plate is placed in a counter to measure the radioactivity in each well.
The amount of radioactivity determined for each well is then compared to a pre-determined amount of radioactivity measured using the above procedure in the absence of a candidate compound. […]

[2] = biological target: T2, human cloned muscarinic receptor (M2) (Homo sapiens, UniProt P08172); test: Binding of Compound D to the receptor measured using 3H-NMS; conditions: stated more potent than Compound A
T2 sequence (P08172 1-466): T1 sequence (P08172 1-466)
Experimental: as §1, §2
The binding of Compound D to the receptor is then measured using ^3H-NMS.

Compound | binding to the receptor (radioactivity of bound 3H-NMS observed) [1] | pKd [2]
CNC1CCN(Cc2c(OC)cccc2OC)CC1 [Compound C] | bind strongly | 
O=C(Nc1ccc2ccccc2c1)C1CC(O)CN1 (stereo not drawn) [Compound B] | bind weakly | 
COc1cccc(OC)c1CN1CCC(N(C)CCCCCCCN2CCC(OC(=O)Nc3ccccc3-c3ccccc3)CC2)CC1 [Compound D] |  | 8.70
